Test results from patent US9993529B2, “Stable formulations of a hyaluronan-degrading enzyme” (Halozyme, Inc., priority 2011, dated 2018).
Read-outs that look alike come from different tables or passages of the source. One block for each compound: values may come before it. Residues, ends and D or L forms follow the SMILES beside them.

What was measured:
[1] = biological target: T1, rHuPH20 (Homo sapiens, UniProt P38567); conditions: for Effect on rHuPH20 enzymatic activity: stabilizer screen in rHuPH20/insulin formulation ([…] m-cresol, 0.2% phenol, pH 7.3±0.1), 30° C. about one week, semi-quantitative in comparison with NaCl; for rHuPH20 activity: 48 hours
T1 sequence (P38567 36-482): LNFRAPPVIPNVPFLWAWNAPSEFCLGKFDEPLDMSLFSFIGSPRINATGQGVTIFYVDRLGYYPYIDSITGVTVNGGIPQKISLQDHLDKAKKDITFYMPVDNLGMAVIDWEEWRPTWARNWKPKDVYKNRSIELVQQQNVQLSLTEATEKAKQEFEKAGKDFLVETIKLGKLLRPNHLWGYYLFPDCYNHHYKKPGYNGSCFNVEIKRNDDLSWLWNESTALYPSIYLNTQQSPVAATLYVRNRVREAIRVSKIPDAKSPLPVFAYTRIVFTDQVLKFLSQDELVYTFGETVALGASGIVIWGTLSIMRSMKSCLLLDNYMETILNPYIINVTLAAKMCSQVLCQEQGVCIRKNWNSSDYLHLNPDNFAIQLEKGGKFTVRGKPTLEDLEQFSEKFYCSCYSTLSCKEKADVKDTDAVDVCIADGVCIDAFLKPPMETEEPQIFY
Experimental: The activity of a hyaluronan degrading enzyme can be assessed using methods well known in the art. […] A Hyaluronidase Reference Standard (USP) or National Formulary (NF) Standard Hyaluronidase solution can be used in an assay to ascertain the activity, in units, of any hyaluronidase. In one example, activity is measured using a microturbidity assay. […] The turbidity of the resulting sample is measured at 640 nm after an additional development period.

[2] = SEC, % main rHuPH20 peak; assay type: physicochemical
Experimental: SEC was performed using the following conditions: 1× Phosphate Buffered Saline (PBS), a Toso BioScience G2000 SWXL column, and a flow rate set at 1 mL/min. Data were collected as described above and means were reported and entered into the design table following the sample sequence provided by the DOE software.

[3] = RP-HPLC rHuPH20 oxidation peaks (ox-1, ox-2); assay type: physicochemical; conditions: 0.02% surfactant, 30° C., 72 hours
Excerpt: The stability of hyaluronan degrading enzymes in a composition, such as in the co-formulations provided herein, also can be assessed using other methods and assays known in the art. […] Percent recovery is the relative percentage of the hyaluronidase in the co-formulation over time and at various storage conditions, as compared to a reference sample. […] An increase in particle size and a decrease in the melting temperature indicates denaturation and subsequent aggregation of the hyaluronidase. […] Other methods known to one of skill in the art that can be used to determine the stability of the hyaluronidase in the co-formulations provided herein, include polyacrylamide gel electrophoresis (PAGE), immunoblotting, nuclear magnetic resonance (NMR) spectroscopy, mass spectrometry, circular dichroism (CD) and dye-based fluorescence assays.
The formulations varied in the surfactant and surfactant concentration and the buffer (either histidine or phosphate).
Methionine oxidation can be prevented by addition of free methionine as a scavenger to react with potential oxidative compounds.

[4] = RP-HPLC insulin apparent solubility / percent recovery (content)
Experimental: Apparent solubility was measured as the percent insulin recovery as compared to the initial formulations/conditions.
Samples were prepared by withdrawing 100 μL from each vial at every time point and centrifuging prior to loading. Samples were stored in an autosampler at 4° C. prior to use, and were considered stable for 3 days after preparation. All samples were tested in duplicate.
For insulin, 20 μL was injected for each HPLC run.
To determine the apparent solubility, the peak area of insulin/insulin analog main peak and desamido peak were integrated and combined together to calculate the percentage relative to the standards. […] The data were processed using Design-Expert® 7.0 (StatEase) and the “historical data” feature. Insulin percent purity was expressed as the percent of main insulin versus all insulin species.

[5] = in vivo; cited from earlier work
[6] = Temperature effect on pH and NaOH titration of lysyl lysine buffer; assay type: physicochemical; conditions: Ex27 rHuPH20/insulin glulisine formulations
[7] = 35° C., 1 day, concentrations of Table 21
[8] = stabilizer screen in rHuPH20/insulin formulation, RP-HPLC on samples stored at 5° C., semi-quantitative in comparison with NaCl
[9] = 4° C., concentrations of Table 22

Compound: O=C([O-])c1ccccc1.[Na+] [Sodium Benzoate]
Effect on rHuPH20 enzymatic activity [1]: No effect

Compound: Polysorbate 20
% of Oxidation Peak 1 of rHuPH20 ([3]; Methionine 0 mM): 4.01% | % of Oxidation Peak 1 of rHuPH20 ([3]; Methionine 2 mM): 3.43% | % of Oxidation Peak 1 of rHuPH20 ([3]; Methionine 10 mM): 3.37% | % of Oxidation Peak 1 of rHuPH20 ([3]; Methionine 50 mM): 3.38%

Compound: NC(=O)CC[C@H](N)C(=O)O [Glutamine]
Effect on insulin solubility [4, 8]: No effect | Effect on rHuPH20 enzymatic activity [1]: No effect

Compound: detemir: long-lasting insulin analog
Duration [5]: 28 h

Compound: Cl.Cl.NCCCCC(N)C(=O)NC(CCCCN)C(=O)O (stereo not drawn) [Lys-Lys, H-Lys-Lys-OH HCl]
Effect on insulin solubility [4, 8]: Reduced solubility | Effect on insulin solubility ([4]; stabilizer screen, 5° C.): caused severe precipitation of insulin | temperature effect (dpH/dT) [6]: −0.033 U/° C. | Lys-Lys concentration sufficient to improve rHuPH20 stability ([1]; Ex24, 40° C.): 10 mM | Effect on rHuPH20 enzymatic activity [1]: Strong stabilizer | stabilization of rHuPH20 compared with NaCl ([1]; stabilizer screen, […] m-cresol, 0.2% phenol, 30° C., about one week): stabilized rHuPH20 more than NaCl

Compound: glargine: long-lasting insulin analog
Duration [5]: 28 h

Compound: OC[C@@H](O)[C@@H](O)[C@H](O)[C@H](O)CO [Mannitol]
Effect on rHuPH20 enzymatic activity [1]: No effect

Compound: Polysorbate 80
% of Oxidation Peak 1 of rHuPH20 ([3]; Methionine 0 mM): 4.01% | % of Oxidation Peak 1 of rHuPH20 ([3]; Methionine 2 mM): 3.50% | % of Oxidation Peak 1 of rHuPH20 ([3]; Methionine 10 mM): 3.44% | % of Oxidation Peak 1 of rHuPH20 ([3]; Methionine 50 mM): 3.34%

Compound: Cc1cccc(O)c1 [m-cresol]
rHuPH20 activity ([1]; 35° C.): <LOQ | % Main rHuPH20 peak by non-denaturing SEC [2, 9]: 100.00%

Compound: COC(=O)c1ccc(O)cc1 [methylparaben]
rHuPH20 activity ([1]; 4° C.): 10,380 | rHuPH20 activity ([1]; 35° C.): 12,660 | Enzymatic Activity of rHuPH20 ([1]; preservative 0.05 %, 1 Month, 25° C., insulin/rHuPH20): 2061 U/mL | Enzymatic Activity of rHuPH20 ([1]; preservative 0.05 %, 1 Week, 35° C.): 1058^2 U/mL | Enzymatic Activity of rHuPH20 ([1]; preservative 0.05 %, 2 Weeks, 35° C.): 1018^2 U/mL | Enzymatic Activity of rHuPH20 ([1]; preservative 0.1 %, 1 Month, 25° C.): 1919 U/mL | Enzymatic Activity of rHuPH20 ([1]; preservative 0.1 %, 1 Week, 35° C.): 2085 U/mL | Enzymatic Activity of rHuPH20 ([1]; preservative 0.1 %, 2 Weeks, 35° C.): 1968 U/mL | Enzymatic Activity of rHuPH20 ([1]; preservative 0.2 %, 1 Month, 25° C.): 2196 U/mL | Enzymatic Activity of rHuPH20 ([1]; preservative 0.2 %, 1 Week, 35° C.): 1927 U/mL | Enzymatic Activity of rHuPH20 ([1]; preservative 0.2 %, 2 Weeks, 35° C.): 1590 U/mL | Enzymatic Activity of rHuPH20 ([1]; preservative 0.3 %, 1 Month, 25° C.): 2049 U/mL | Enzymatic Activity of rHuPH20 ([1]; preservative 0.3 %, 2 Weeks, 35° C.): 447 U/mL | % Main rHuPH20 peak by non-denaturing SEC [2, 9]: 100.00%

Compound: O=C(O)CCCc1ccccc1 [Phenyl butyric acid]
Effect on rHuPH20 enzymatic activity [1]: No effect

Compound: NCCCC[C@H](N)C(=O)O [Lysine]
Effect on insulin solubility [4, 8]: No effect | Effect on rHuPH20 enzymatic activity [1]: No effect

Compound: C[N+](C)(C)[O-] [Trimethylamine oxide (TMAO)]
Effect on insulin solubility [4, 8]: No effect | Effect on rHuPH20 enzymatic activity [1]: No effect

More lines, now with the values ahead:

% Main rHuPH20 peak by non-denaturing SEC [2, 7]: <LOD
Compound: OCCCCCl [4-Chloro-1-butanol]

% Main rHuPH20 peak by non-denaturing SEC [2, 7]: <LOD
Compound: Benzalkonium Chloride

Effect on insulin solubility [4, 8]: No effect | Effect on rHuPH20 enzymatic activity [1]: No effect
Compound: C[N+](C)(C)CC(=O)O [Betaine]

Effect on rHuPH20 enzymatic activity [1]: No effect
Compound: O[C@H]1[C@H](O)[C@@H](O)[C@H](O)[C@@H](O)[C@H]1O [Inositol]

Effect on rHuPH20 enzymatic activity [1]: No effect
Compound: OC[C@H]1O[C@@](CO)(O[C@H]2O[C@H](CO)[C@@H](O)[C@H](O)[C@H]2O)[C@@H](O)[C@@H]1O [Sucrose]

Effect on rHuPH20 enzymatic activity [1]: No effect
Compound: NCC(=O)NCC(=O)O [Gly-Gly] (H-Gly-Gly-OH)

Effect on insulin solubility [4, 8]: No effect | Effect on rHuPH20 enzymatic activity [1]: No effect
Compound: CSCC[C@H](N)C(=O)O [methionine]

Effect on rHuPH20 enzymatic activity [1]: No effect
Compound: OC[C@@H](O)[C@@H](O)[C@H](O)[C@@H](O)CO [sorbitol]

Effect on insulin solubility [4]: No/slight effect; | Effect on rHuPH20 enzymatic activity [1]: No effect
Compound: OCC(O)CO [glycerol]

Effect on insulin solubility [4]: No effect | Effect on rHuPH20 enzymatic activity [1]: No effect
Compound: NC(CO)(CO)CO [Tris (100 mM)]

Effect on rHuPH20 enzymatic activity [1]: No effect
Compound: OC[C@H]1O[C@H](O[C@H]2O[C@H](CO)[C@@H](O)[C@H](O)[C@H]2O)[C@H](O)[C@@H](O)[C@@H]1O [Trehalose]

% Main rHuPH20 peak by non-denaturing SEC [2, 9]: 100.00%
Compound: N[C@@H](Cc1ccccc1)C(=O)O [L-Phenylalanine]
